Reference: ChEMBL document CHEMBL4007385, “Prodrug approach: An overview of recent cases” (Eur J Med Chem, 2017)

Experiment: Oral bioavailability in human
Assay type: ADME, organism-based
Conditions: in vivo

Row | bioavailability | SMILES
1 | 5% | CCC(CC)O[C@@H]1C=C(C(=O)O)C[C@H](N)[C@H]1NC(C)=O [OSELTAMIVIR CARBOXYLATE]
2 | 80% | CCOC(=O)C1=C[C@@H](OC(CC)CC)[C@H](NC(C)=O)[C@@H](N)C1 [OSELTAMIVIR]
